{"source": "the supplement of paper PMC10307832", "test_in_all_cases": "relative viability (nuclei count vs DMSO), 5 days (fraction); higher = more cells survive", "key": {"[1]": {"test_system": "ChaGo-K-1", "how_it_was_run": "(§1)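 For relative viability, nuclei counts in treated wells were divided by those in vehicle wells. Lung cancer cell lines had been pin-tool dosed in 1536-well plates the day after seeding and cultured for 5 days, then fixed and stained in one step (final 0.05% Triton X-100, 1% formaldehyde, 1 ug/ml Hoechst) and imaged at 4×. Doses were one drug alone or a fixed anchor-drug dose plus five library-drug doses (not always all listed) in √10 steps, and values are duplicate-plate medians.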"}, "[2]": {"test_system": "HCC-366", "how_it_was_run": "as §1"}, "[3]": {"test_system": "NCI-H1793", "how_it_was_run": "as §1"}, "[4]": {"test_system": "EPLC-272H", "how_it_was_run": "as §1"}, "[5]": {"test_system": "NCI-H1734", "how_it_was_run": "as §1"}, "[6]": {"test_system": "COR-L23", "how_it_was_run": "as §1"}, "[7]": {"test_system": "NCI-H1944", "how_it_was_run": "as §1"}, "[8]": {"test_system": "HCC-15", "how_it_was_run": "as §1"}, "[9]": {"test_system": "NCI-H3122", "how_it_was_run": "as §1"}, "[10]": {"test_system": "ABC-1", "how_it_was_run": "as §1"}, "[11]": {"test_system": "NCI-H1355", "how_it_was_run": "as §1"}, "[12]": {"test_system": "PC-14", "how_it_was_run": "as §1"}, "[13]": {"test_system": "NCI-H2405", "how_it_was_run": "as §1"}, "[14]": {"test_system": "NCI-H2347", "how_it_was_run": "as §1"}, "[15]": {"test_system": "HCC-827", "how_it_was_run": "as §1"}, "[16]": {"test_system": "LCLC-103H", "how_it_was_run": "as §1"}, "[17]": {"test_system": "NCI-H2228", "how_it_was_run": "as §1"}, "[18]": {"test_system": "NCI-H2085", "how_it_was_run": "as §1"}, "[19]": {"test_system": "NCI-H2023", "how_it_was_run": "as §1"}, "[20]": {"test_system": "NCI-H2009", "how_it_was_run": "as §1"}, "[21]": {"test_system": "SW 1573", "how_it_was_run": "as §1"}}, "data": [{"smiles": "Cc1csc(=NC2CCCCC2)n1/N=C/c1ccc(O)c(O)c1O", "note": "[MIM1] + COc1cc2c(Oc3ccc(NC(=O)C4(C(=O)Nc5ccc(F)cc5)CC4)cc3F)ccnc2cc1OCCCN1CCOCC1 [Foretinib] (partner 0.25 µM)", "values": [{"measurement": "relative viability", "setting": "[1]; first compound 0.2 µM", "result": 0.973}, {"measurement": "relative viability", "setting": "[1]; first compound 0.6325 µM", "result": 1}, {"measurement": "relative viability", "setting": "[1]; first compound 2 µM", "result": 0.774}, {"measurement": "relative viability", "setting": "[1]; first compound 6.325 µM", "result": 0.771}, {"measurement": "relative viability", "setting": "[1]; first compound 20 µM", "result": 0.282}, {"measurement": "relative viability", "setting": "[2]; first compound 0.2 µM", "result": 0.927}, {"measurement": "relative viability", "setting": "[2]; first compound 2 µM", "result": 0.993}, {"measurement": "relative viability", "setting": "[2]; first compound 6.325 µM", "result": 0.782}, {"measurement": "relative viability", "setting": "[2]; first compound 20 µM", "result": 0.077}, {"measurement": "relative viability", "setting": "[3]; first compound 0.2 µM", "result": 0.793}, {"measurement": "relative viability", "setting": "[3]; first compound 2 µM", "result": 0.735}, {"measurement": "relative viability", "setting": "[3]; first compound 6.325 µM", "result": 0.686}, {"measurement": "relative viability", "setting": "[3]; first compound 20 µM", "result": 1.01}, {"measurement": "relative viability", "setting": "[4]; first compound 0.2 µM", "result": 0.779}, {"measurement": "relative viability", "setting": "[4]; first compound 0.6325 µM", "result": 0.724}, {"measurement": "relative viability", "setting": "[4]; first compound 2 µM", "result": 0.622}, {"measurement": "relative viability", "setting": "[4]; first compound 6.325 µM", "result": 0.159}, {"measurement": "relative viability", "setting": "[4]; first compound 20 µM", "result": 0.12}, {"measurement": "relative viability", "setting": "[5]; first compound 0.2 µM", "result": 0.884}, {"measurement": "relative viability", "setting": "[5]; first compound 0.6325 µM", "result": 0.886}, {"measurement": "relative viability", "setting": "[5]; first compound 2 µM", "result": 0.772}, {"measurement": "relative viability", "setting": "[5]; first compound 6.325 µM", "result": 0.478}, {"measurement": "relative viability", "setting": "[5]; first compound 20 µM", "result": 0.255}, {"measurement": "relative viability", "setting": "[6]; first compound 0.2 µM", "result": 0.992}, {"measurement": "relative viability", "setting": "[6]; first compound 0.6325 µM", "result": 0.935}, {"measurement": "relative viability", "setting": "[6]; first compound 2 µM", "result": 0.839}, {"measurement": "relative viability", "setting": "[6]; first compound 6.325 µM", "result": 0.802}, {"measurement": "relative viability", "setting": "[6]; first compound 20 µM", "result": 0.547}, {"measurement": "relative viability", "setting": "[7]; first compound 0.2 µM", "result": 0.908}, {"measurement": "relative viability", "setting": "[7]; first compound 0.6325 µM", "result": 0.93}, {"measurement": "relative viability", "setting": "[7]; first compound 2 µM", "result": 0.581}, {"measurement": "relative viability", "setting": "[7]; first compound 6.325 µM", "result": 0.709}, {"measurement": "relative viability", "setting": "[7]; first compound 20 µM", "result": 0.564}, {"measurement": "relative viability", "setting": "[8]; first compound 0.2 µM", "result": 1.09}, {"measurement": "relative viability", "setting": "[8]; first compound 2 µM", "result": 1.06}, {"measurement": "relative viability", "setting": "[8]; first compound 6.325 µM", "result": 0.764}, {"measurement": "relative viability", "setting": "[8]; first compound 20 µM", "result": 0.157}, {"measurement": "relative viability", "setting": "[9]; first compound 0.2 µM", "result": 0.891}, {"measurement": "relative viability", "setting": "[9]; first compound 0.6325 µM", "result": 1.03}, {"measurement": "relative viability", "setting": "[9]; first compound 2 µM", "result": 1.03}, {"measurement": "relative viability", "setting": "[9]; first compound 6.325 µM", "result": 0.683}, {"measurement": "relative viability", "setting": "[9]; first compound 20 µM", "result": 0.64}, {"measurement": "relative viability", "setting": "[10]; first compound 0.2 µM", "result": 1.05}, {"measurement": "relative viability", "setting": "[10]; first compound 0.6325 µM", "result": 1.12}, {"measurement": "relative viability", "setting": "[10]; first compound 2 µM", "result": 0.981}, {"measurement": "relative viability", "setting": "[10]; first compound 6.325 µM", "result": 0.324}, {"measurement": "relative viability", "setting": "[10]; first compound 20 µM", "result": 0.328}, {"measurement": "relative viability", "setting": "[11]; first compound 0.2 µM", "result": 0.911}, {"measurement": "relative viability", "setting": "[11]; first compound 0.6325 µM", "result": 0.885}, {"measurement": "relative viability", "setting": "[11]; first compound 2 µM", "result": 0.976}, {"measurement": "relative viability", "setting": "[11]; first compound 6.325 µM", "result": 0.87}, {"measurement": "relative viability", "setting": "[11]; first compound 20 µM", "result": 0.629}, {"measurement": "relative viability", "setting": "[12]; first compound 0.2 µM", "result": 0.931}, {"measurement": "relative viability", "setting": "[12]; first compound 0.6325 µM", "result": 0.942}, {"measurement": "relative viability", "setting": "[12]; first compound 2 µM", "result": 0.908}, {"measurement": "relative viability", "setting": "[12]; first compound 6.325 µM", "result": 0.784}, {"measurement": "relative viability", "setting": "[12]; first compound 20 µM", "result": 0.629}, {"measurement": "relative viability", "setting": "[13]; first compound 0.2 µM", "result": 1.05}, {"measurement": "relative viability", "setting": "[13]; first compound 0.6325 µM", "result": 1.05}, {"measurement": "relative viability", "setting": "[13]; first compound 2 µM", "result": 1}, {"measurement": "relative viability", "setting": "[13]; first compound 6.325 µM", "result": 0.741}, {"measurement": "relative viability", "setting": "[13]; first compound 20 µM", "result": 0.866}, {"measurement": "relative viability", "setting": "[14]; first compound 0.2 µM", "result": 0.953}, {"measurement": "relative viability", "setting": "[14]; first compound 0.6325 µM", "result": 0.568}, {"measurement": "relative viability", "setting": "[14]; first compound 2 µM", "result": 0.567}, {"measurement": "relative viability", "setting": "[14]; first compound 6.325 µM", "result": 1.18}, {"measurement": "relative viability", "setting": "[14]; first compound 20 µM", "result": 0.445}, {"measurement": "relative viability", "setting": "[15]; first compound 0.2 µM", "result": 1.04}, {"measurement": "relative viability", "setting": "[15]; first compound 0.6325 µM", "result": 1}, {"measurement": "relative viability", "setting": "[15]; first compound 2 µM", "result": 1.01}, {"measurement": "relative viability", "setting": "[15]; first compound 6.325 µM", "result": 0.402}, {"measurement": "relative viability", "setting": "[15]; first compound 20 µM", "result": 0.207}, {"measurement": "relative viability", "setting": "[16]; first compound 0.2 µM", "result": 0.82}, {"measurement": "relative viability", "setting": "[16]; first compound 0.6325 µM", "result": 0.833}, {"measurement": "relative viability", "setting": "[16]; first compound 2 µM", "result": 0.942}, {"measurement": "relative viability", "setting": "[16]; first compound 6.325 µM", "result": 0.545}, {"measurement": "relative viability", "setting": "[16]; first compound 20 µM", "result": 0.364}, {"measurement": "relative viability", "setting": "[17]; first compound 0.2 µM", "result": 1.06}, {"measurement": "relative viability", "setting": "[17]; first compound 0.6325 µM", "result": 0.951}, {"measurement": "relative viability", "setting": "[17]; first compound 2 µM", "result": 0.853}, {"measurement": "relative viability", "setting": "[17]; first compound 6.325 µM", "result": 0.583}, {"measurement": "relative viability", "setting": "[17]; first compound 20 µM", "result": 0.247}, {"measurement": "relative viability", "setting": "[18]; first compound 0.2 µM", "result": 0.895}, {"measurement": "relative viability", "setting": "[18]; first compound 0.6325 µM", "result": 1.11}, {"measurement": "relative viability", "setting": "[18]; first compound 2 µM", "result": 1.13}, {"measurement": "relative viability", "setting": "[18]; first compound 6.325 µM", "result": 0.935}, {"measurement": "relative viability", "setting": "[18]; first compound 20 µM", "result": 0.843}, {"measurement": "relative viability", "setting": "[19]; first compound 0.2 µM", "result": 0.691}, {"measurement": "relative viability", "setting": "[19]; first compound 0.6325 µM", "result": 0.941}, {"measurement": "relative viability", "setting": "[19]; first compound 2 µM", "result": 0.7}, {"measurement": "relative viability", "setting": "[19]; first compound 6.325 µM", "result": 0.599}, {"measurement": "relative viability", "setting": "[19]; first compound 20 µM", "result": 0.453}, {"measurement": "relative viability", "setting": "[20]; first compound 0.2 µM", "result": 1.19}, {"measurement": "relative viability", "setting": "[20]; first compound 0.6325 µM", "result": 1.25}, {"measurement": "relative viability", "setting": "[20]; first compound 2 µM", "result": 1.27}, {"measurement": "relative viability", "setting": "[20]; first compound 6.325 µM", "result": 1.09}, {"measurement": "relative viability", "setting": "[20]; first compound 20 µM", "result": 0.566}, {"measurement": "relative viability", "setting": "[21]; first compound 0.2 µM", "result": 1.04}, {"measurement": "relative viability", "setting": "[21]; first compound 0.6325 µM", "result": 0.963}, {"measurement": "relative viability", "setting": "[21]; first compound 2 µM", "result": 0.809}, {"measurement": "relative viability", "setting": "[21]; first compound 6.325 µM", "result": 0.871}, {"measurement": "relative viability", "setting": "[21]; first compound 20 µM", "result": 0.539}]}]}
